Patent publication US20220233444A1, “THIOESTER CATIONIC LIPIDS” (Translate Bio, Inc., priority 2019, published 2022)

Test system: BALB/c mice
Test: In vivo expression of hEPO after IM injection of LNP formulations in BALB/c mice
Conditions: lipid nanoparticles with hEPO mRNA, Cationic Lipid, DMG-PEG2000, Cholesterol and DOPE; single intramuscular injection into gastrocnemius muscle, 0.1 ug; male BALB/c mice; 6 hours post-dose; ELISA; FIG. 1
Method: FIG. 1 depicts in vivo protein production resulting from the delivery of mRNA using lipid nanoparticles comprising Compound 30 as described herein.
Lipid nanoparticle formulations comprising human erythropoietin (hEPO) mRNA, Cationic Lipid, DMG-PEG2000, Cholesterol and DOPE were administered intramuscularly to study mRNA delivery and resultant hEPO expression. Male BALB/c mice at 6-8 weeks old are given a single injection of the LNP formulations into the gastrocnemius muscle at a dosage level of 0.1 ug. Blood samples were collected at 6 hours post-dose, hEPO protein expression levels were measured in the sera samples by ELISA and presented in FIG. 1.

## CCCCCCCCCCC(O)CN(CCCC(=O)SCCCCSC(=O)CCCN(CC(O)CCCCCCCCCC)CC(O)CCCCCCCCCC)CC(O)CCCCCCCCCC (stereo not shown) [Compound 30]
  hEPO protein expression levels in sera (in vivo protein production): high levels of in vivo protein production
